Laboratory results reported in the NIST ThermoML archive (doi:10.1007/s10765-005-8089-2).

Experiment: xn = mol fraction of the nth substance listed
Conditions: Liquid, Falling or rolling sphere viscometry

Cc1ccccc1 [toluene] + CCO
viscosity [mPa·s]
Conditions	x2 = 0.125	x2 = 0.25	x2 = 0.375	x2 = 0.5	x2 = 0.625	x2 = 0.75	x2 = 0.875
293.15 K, 100 kPa	0.588	0.609	0.652	0.71	0.79	0.899	1.023
293.15 K, 20000 kPa	0.68	0.71	0.754	0.815	0.909	1.014	1.157
293.15 K, 40000 kPa	0.781	0.816	0.866	0.931	1.034	1.152	1.306
293.15 K, 60000 kPa	0.893	0.931	0.986	1.055	1.166	1.297	1.457
293.15 K, 80000 kPa	1.016	1.054	1.114	1.187	1.302	1.444	1.604
293.15 K, 100000 kPa	1.153	1.189	1.251	1.331	1.449	1.6	1.757
313.15 K, 100 kPa	0.462	0.471	0.49	0.525	0.574	0.635	0.717
313.15 K, 20000 kPa	0.538	0.549	0.573	0.611	0.662	0.729	0.825
313.15 K, 40000 kPa	0.619	0.632	0.658	0.699	0.757	0.83	0.932
313.15 K, 60000 kPa	0.705	0.718	0.747	0.792	0.854	0.933	1.039
313.15 K, 80000 kPa	0.796	0.81	0.841	0.889	0.955	1.038	1.147
313.15 K, 100000 kPa	0.893	0.907	0.94	0.991	1.058	1.145	1.255
333.15 K, 100 kPa	0.37	0.373	0.385	0.405	0.431	0.468	0.523
333.15 K, 20000 kPa	0.433	0.437	0.45	0.47	0.501	0.544	0.603
333.15 K, 40000 kPa	0.499	0.503	0.518	0.54	0.573	0.621	0.684
333.15 K, 60000 kPa	0.568	0.571	0.588	0.611	0.647	0.697	0.763
333.15 K, 80000 kPa	0.639	0.643	0.662	0.686	0.724	0.776	0.844
333.15 K, 100000 kPa	0.714	0.718	0.739	0.763	0.804	0.856	0.926
353.15 K, 100 kPa	0.306	–	–	–	–	–	–
353.15 K, 20000 kPa	0.358	0.356	0.361	0.372	0.39	0.415	0.453
353.15 K, 40000 kPa	0.412	0.411	0.417	0.427	0.446	0.476	0.516
353.15 K, 60000 kPa	0.468	0.467	0.474	0.484	0.504	0.536	0.577
353.15 K, 80000 kPa	0.526	0.525	0.532	0.541	0.564	0.597	0.64
353.15 K, 100000 kPa	0.588	0.586	0.593	0.601	0.625	0.66	0.703
